pIC50: −log10 of the molar value. Activity calls are given as the source filed them. No cut-off for these calls is given here.
Tests used:
[1] = system: K562; assay: Induction of apoptosis in human K562 cells assessed as early apoptotic cells at 3 uM incubated for 48 hrs by annexin V-FITC/PI staining based flow cytometry (reference value: 0.32 %); assay type: functional
[2] = system: K562; assay: Induction of apoptosis in human K562 cells assessed as increase in cleaved PARP gene expression at 3 to 12 uM after 48 hrs by SYBR green dye-based qRT-PCR analysis; assay type: functional, cell-based; details: dose 3-12 µM
[3] = system: K562; assay: Induction of apoptosis in human K562 cells assessed as increase in cleaved caspase 9 gene expression at 3 to 12 uM after 48 hrs by SYBR green dye-based qRT-PCR analysis; assay type: functional, cell-based; details: dose 3-12 µM
[4] = system: K562; assay: Induction of apoptosis in human K562 cells assessed as early apoptotic cells at 6 uM incubated for 48 hrs by annexin V-FITC/PI staining based flow cytometry (reference value: 0.32 %); assay type: functional
[5] = system: K562; assay: Induction of ROS generation in human K562 cells at 6 uM incubated for 48 hrs by DCFH-DA staining-based flow cytometry (reference value: 3.68 %); assay type: functional
[6] = system: HepG2; assay: Cytotoxicity against human HepG2 cells assessed as inhibition of cell growth incubated for 48 hrs by CCK-8 assay; assay type: functional, cell-based; details: HepG2, 48 h
[7] = system: K562; assay: Potency index, ratio of diosgenin IC50 to test compound IC50 for cytotoxicity against human K562 cells assessed as inhibition of cell growth incubated for 48 hrs by CCK-8 assay; assay type: functional
[8] = system: K562; assay: Induction of apoptosis in human K562 cells assessed as late apoptotic cells at 12 uM incubated for 48 hrs by annexin V-FITC/PI staining based flow cytometry (reference value: 0.11 %); assay type: functional
[9] = system: A549; assay: Cytotoxicity against human A549 cells assessed as inhibition of cell growth incubated for 48 hrs by CCK-8 assay; assay type: functional, cell-based; details: A549, 48 h
[10] = system: K562; assay: Induction of apoptosis in human K562 cells assessed as increase in number of broken cells at 3 to 12 uM incubated for 48 hrs by light microscopic analysis; assay type: functional, cell-based; details: dose 3-12 µM
[11] = system: K562; assay: Induction of apoptosis in human K562 cells assessed as increase in cleaved caspase 9 protein expression at 3 to 12 uM after 48 hrs by Western blot analysis; assay type: functional, cell-based; details: dose 3-12 µM
[12] = system: K562; assay: Induction of apoptosis in human K562 cells assessed as nuclear fragmentation at 3 to 12 uM incubated for 48 hrs by Hoechst 33342/PI staining based fluorescence microscopic analysis; assay type: functional, cell-based; details: dose 3-12 µM
[13] = system: K562; assay: Induction of mitochondrial membrane potential loss in human K562 cells assessed as cell population with intact mitochondrial membrane potential at 6 uM after 48 hrs by JC1 dye-based flow cytometry analysis (reference value: 96.48%); assay type: functional
[14] = system: K562; assay: Induction of apoptosis in human K562 cells assessed as decrease in Bcl-2 protein expression after 48 hrs by Western blot analysis; assay type: functional, cell-based; details: dose 3-12 µM
[15] = system: MCF7; assay: Cytotoxicity against human MCF7 cells assessed as inhibition of cell growth incubated for 48 hrs by CCK-8 assay; assay type: functional, cell-based; details: MCF7, 48 h
[16] = system: A549; assay: Potency index, ratio of diosgenin IC50 to test compound IC50 for cytotoxicity against human A549 cells assessed as inhibition of cell growth incubated for 48 hrs by CCK-8 assay; assay type: functional
[17] = system: K562; assay: Induction of apoptosis in human K562 cells assessed as chromatin condensation at 3 to 12 uM incubated for 48 hrs by Hoechst 33342/PI staining based fluorescence microscopic analysis; assay type: functional, cell-based; details: dose 3-12 µM
[18] = system: K562; assay: Induction of apoptosis in human K562 cells assessed as increase in cleaved caspase 3 protein expression at 3 to 12 uM after 48 hrs by Western blot analysis; assay type: functional, cell-based; details: dose 3-12 µM
[19] = system: K562; assay: Induction of mitochondrial membrane potential loss in human K562 cells assessed as cell population with mitochondrial membrane potential collapse at 12 uM after 48 hrs by JC1 dye-based flow cytometry analysis (reference value: 2.75%); assay type: functional
[20] = system: K562; assay: Induction of mitochondrial membrane potential loss in human K562 cells assessed as cell population with mitochondrial membrane potential collapse at 3 uM after 48 hrs by JC1 dye-based flow cytometry analysis (reference value: 2.75%); assay type: functional
[21] = system: K562; assay: Induction of apoptosis in human K562 cells assessed as increase in Bax protein expression at 3 to 12 uM after 48 hrs by Western blot analysis; assay type: functional, cell-based; details: dose 3-12 µM
[22] = system: MKN-45; assay: Cytotoxicity against human MNK45 cells assessed as inhibition of cell growth incubated for 48 hrs by CCK-8 assay; assay type: functional, cell-based; details: MKN-45, 48 h
[23] = system: T-24; assay: Cytotoxicity against human T24 cells assessed as inhibition of cell growth incubated for 48 hrs by CCK-8 assay; assay type: functional, cell-based; details: T-24, 48 h
[24] = system: K562; assay: Induction of apoptosis in human K562 cells assessed as decrease in cell density at 3 to 12 uM incubated for 48 hrs by light microscopic analysis; assay type: functional, cell-based; details: dose 3-12 µM
[25] = system: K562; assay: Induction of apoptosis in human K562 cells assessed as increase in cleaved caspase 3 gene expression at 3 to 12 uM after 48 hrs by SYBR green dye-based qRT-PCR analysis; assay type: functional, cell-based; details: dose 3-12 µM
[26] = system: K562; assay: Induction of apoptosis in human K562 cells assessed as early apoptotic cells at 12 uM incubated for 48 hrs by annexin V-FITC/PI staining based flow cytometry (reference value: 0.32 %); assay type: functional
[27] = system: K562; assay: Induction of mitochondrial membrane potential loss in human K562 cells assessed as cell population with intact mitochondrial membrane potential at 12 uM after 48 hrs by JC1 dye-based flow cytometry analysis (reference value: 96.48%); assay type: functional
[28] = system: K562; assay: Induction of apoptosis in human K562 cells assessed as late apoptotic cells at 6 uM incubated for 48 hrs by annexin V-FITC/PI staining based flow cytometry (reference value: 0.11 %); assay type: functional
[29] = system: K562; assay: Induction of ROS generation in human K562 cells at 3 uM incubated for 48 hrs by DCFH-DA staining-based flow cytometry (reference value: 3.68 %); assay type: functional
[30] = system: K562; assay: Induction of mitochondrial membrane potential loss in human K562 cells assessed as cell population with intact mitochondrial membrane potential at 3 uM after 48 hrs by JC1 dye-based flow cytometry analysis (reference value: 96.48%); assay type: functional
[31] = system: K562; assay: Induction of apoptosis in human K562 cells assessed as decrease in Bcl-2 gene expression after 48 hrs by SYBR green dye-based qRT-PCR analysis; assay type: functional, cell-based; details: dose 3-12 µM
[32] = system: K562; assay: Induction of apoptosis in human K562 cells assessed as increase in cytochrome c protein expression after 48 hrs by Western blot analysis; assay type: functional, cell-based; details: dose 3-12 µM
[33] = system: K562; assay: Induction of apoptosis in human K562 cells assessed as decrease in cell density at 3 to 12 uM incubated for 48 hrs by Hoechst 33342/PI staining based fluorescence microscopic analysis; assay type: functional; details: dose 3-12 µM
[34] = system: K562; assay: Induction of ROS generation in human K562 cells at 12 uM incubated for 48 hrs by DCFH-DA staining-based flow cytometry (reference value: 3.68 %); assay type: functional
[35] = system: K562; assay: Induction of apoptosis in human K562 cells assessed as increase in cleaved PARP protein expression at 3 to 12 uM after 48 hrs by Western blot analysis; assay type: functional, cell-based; details: dose 3-12 µM
[36] = system: K562; assay: Induction of apoptosis in human K562 cells assessed as increase in Bax gene expression at 3 to 12 uM after 48 hrs by SYBR green dye-based qRT-PCR analysis; assay type: functional, cell-based; details: dose 3-12 µM
[37] = system: K562; assay: Induction of mitochondrial membrane potential loss in human K562 cells assessed as cell population with mitochondrial membrane potential collapse at 6 uM after 48 hrs by JC1 dye-based flow cytometry analysis (reference value: 2.75%); assay type: functional
[38] = system: K562; assay: Cytotoxicity against human K562 cells assessed as inhibition of cell growth incubated for 48 hrs by CCK-8 assay; assay type: functional, cell-based; details: K562, 48 h
[39] = system: K562; assay: Potency index, ratio of 5-FU IC50 to test compound IC50 for cytotoxicity against human K562 cells assessed as inhibition of cell growth incubated for 48 hrs by CCK-8 assay; assay type: functional
[40] = system: K562; assay: Induction of apoptosis in human K562 cells assessed as late apoptotic cells at 3 uM incubated for 48 hrs by annexin V-FITC/PI staining based flow cytometry (reference value: 0.11 %); assay type: functional

CC(=O)O[C@H]1CC[C@@]2(C)C(=CC[C@H]3[C@@H]4C[C@@H]5O[C@H](CC[C@@H](C)COC(=O)[C@@H](N)Cc6c[nH]c7ccccc67)[C@@H](C)[C@@H]5[C@@]4(C)CC[C@@H]32)C1
Activity [1]: 4.78% | Activity [2]: Active | Activity [3]: Active | Activity [4]: 11.42% | Activity [5]: 22.26% | pIC50 [6]: 4.90 | Ratio IC50 [7]: 6.8 | Activity [8]: 18.85% | pIC50 [9]: 5.11 | Activity [10]: Active | Activity [11]: Active | Activity [12]: Active | Activity [13]: 75.88% | Activity [14]: Dose-Dependent Effect | pIC50 [15]: 4.95 | Ratio IC50 [16]: 4.2 | Activity [17]: Active | Activity [18]: Active | Activity [19]: 67.81% | Activity [20]: 8.78% | Activity [21]: Active | pIC50 [22]: 4.79 | pIC50 [23]: 5.20 | Activity [24]: Active | Activity [25]: Active | Activity [26]: 21.45% | Activity [27]: 27.71% | Activity [28]: 14.13% | Activity [29]: 16.85% | Activity [30]: 90.01% | Activity [31]: Dose-Dependent Effect | Activity [32]: Dose-Dependent Effect | Activity [33]: Active | Activity [34]: 34.25% | Activity [35]: Active | Activity [36]: Active | Activity [37]: 21.23% | pIC50 [38]: 5.36 | Ratio IC50 [39]: 4.3 | Activity [40]: 9.13%

Source: ChEMBL document CHEMBL4813993, “Design and synthesis of diosgenin derivatives as apoptosis inducers through mitochondria-related pathways” (Eur J Med Chem, 2021)
